Like-named read-outs stand apart in the source and are kept apart here.
How the values were obtained:
[1] = tested on: large crabgrass; experiment: Test B pre-/postemergence herbicide test; type: in vivo, Digitaria sanguinalis; settings: Digitaria sanguinalis; for pest or weed control at 500 g/ha: 500 g ai/ha; for pest or weed control at 125 g/ha: 125 g ai/ha
Method in brief: (§1)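 Greenhouse pot assay with simultaneous preemergence (treated seed) and postemergence (2–18 cm seedlings) applications of surfactant-containing, non-phytotoxic solvent formulations. Response scored visually 13–15 days later on a 0–100 scale, 100 meaning complete control.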

[2] = tested on: small flower umbrella sedge; experiment: Test B flooded paddy test; type: in vivo, Cyperus difformis; settings: Cyperus difformis, 336 h, 1000 g ai/ha, visual rating, scale 0 to 100 (0 no effect, 100 complete control), 13 to 15 days, read-out: Sedge, Umbrella plant response rating
Method in brief: (§2)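 Read-out: visual comparison with controls, scored 0 to 100, where 100 means complete control and 0 no effect. Formulated chemicals were applied postemergence to plants 2–18 cm tall (1- to 4-leaf), or to flooded-paddy plants at the 2-leaf stage, then held 13 to 15 days under glass.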

[3] = tested on: morningglory; experiment: Test B pre-/postemergence herbicide test; type: in vivo, Ipomoea coccinea; settings: Ipomoea, 336 h; for pest or weed control at 125 g/ha: 125 g ai/ha
Method in brief: (§3)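 Pre: seeds sown, then sprayed. Post: 1–4-leaf plants (2–18 cm) sprayed at the same time. Paddy: flooded, treated at 2-leaf stage. Formulation: non-phytotoxic solvent with surfactant. Greenhouse 13–15 days; visual 0–100 score relative to controls.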

[4] = tested on: wheat; experiment: Test B postemergence herbicide test; type: in vivo, Triticum aestivum; settings: scale 0 (no effect) to 100 (complete control)
Method in brief: (§4)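 Postemergence plants were sprayed with formulated test chemicals at 2 to 18 cm height (1- to 4-leaf stage); paddy species were grown to the 2-leaf stage. After 13 to 15 days in a greenhouse, injury was rated visually against untreated controls on a 0–100 scale (0 = no effect, 100 = complete control).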

[5] = tested on: blackgrass; experiment: Test B postemergence herbicide test; type: in vivo, Alopecurus myosuroides; settings: scale 0 (no effect) to 100 (complete control)
Method in brief: as §2

[6] = tested on: cocklebur; experiment: Test B pre-/postemergence herbicide test; type: in vivo, Xanthium strumarium; settings: Xanthium strumarium; for pest or weed control at 500 g/ha: 500 g ai/ha; for pest or weed control at 125 g/ha: 125 g ai/ha
Method in brief: as §3

[7] = tested on: wild oat; experiment: Test B postemergence herbicide test; type: in vivo, Avena fatua; settings: scale 0 (no effect) to 100 (complete control)
Method in brief: as §4

[8] = tested on: lambsquarters; experiment: Test B pre-/postemergence herbicide test; type: in vivo, Chenopodium album; settings: Chenopodium album, 336 h; for pest or weed control at 125 g/ha: 125 g ai/ha
Method in brief: as §1

[9] = tested on: barnyardgrass; experiment: Test B flooded paddy test; type: in vivo, Echinochloa crus-galli; settings: Echinochloa crus-galli, 336 h, 1000 g ai/ha, visual rating, scale 0 to 100 (0 no effect, 100 complete control), 13 to 15 days, read-out: Barnyardgrass plant response rating
Method in brief: as §2

[10] = tested on: velvetleaf; experiment: Test B pre-/postemergence herbicide test; type: in vivo, Abutilon theophrasti; settings: Abutilon theophrasti, 336 h; for pest or weed control at 125 g/ha: 125 g ai/ha
Method in brief: as §1

[11] = tested on: barnyardgrass; experiment: Test B pre-/postemergence herbicide test; type: in vivo, Echinochloa crus-galli; settings: Echinochloa crus-galli; for pest or weed control at 500 g/ha: 500 g ai/ha; for pest or weed control at 125 g/ha: 125 g ai/ha
Method in brief: as §3

[12] = tested on: ducksalad; experiment: Test B flooded paddy test; type: in vivo, Heteranthera limosa; settings: Heteranthera limosa, 336 h, 1000 g ai/ha, visual rating, scale 0 to 100 (0 no effect, 100 complete control), 13 to 15 days, read-out: Ducksalad plant response rating
Method in brief: as §2

[13] = tested on: Surinam grass; experiment: Test B pre-/postemergence herbicide test; type: in vivo, Urochloa decumbens; settings: Urochloa decumbens; for pest or weed control at 125 g/ha: 125 g ai/ha
Method in brief: as §1

[14] = tested on: rice; experiment: Test B flooded paddy test; type: in vivo, Oryza sativa; settings: Oryza sativa, 336 h, 1000 g ai/ha, visual rating, scale 0 to 100 (0 no effect, 100 complete control), 13 to 15 days, read-out: Rice plant response rating
Method in brief: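 Greenhouse test; postemergence application to plants at 1–4 leaves (2–18 cm); paddy species at 2 leaves; evaluated visually vs controls at 13–15 days; scale 0–100 (100 = complete control).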

[15] = tested on: corn; experiment: Test B pre-/postemergence herbicide test; type: in vivo, Zea mays; settings: Zea mays
Method in brief: as §1

[16] = Postemergence, 500 g ai/ha, visual rating after 13 to 15 days

CCOC(=O)c1cccc(NC(=O)c2cc(C(C)(C)C)nn2CC)c1 [Compound 80, ethyl 3-[[[3-(1,1-dimethylethyl)-1-ethyl-1H-pyrazol-5-yl]carbonyl]-amino]benzoate]
pest or weed control at 500 g/ha ([1]; post-emergence, Postemergence, visual rating after 13 to 15 days, scale 0 (no effect) to 100 (complete control), read-out: Plant response rating, Crabgrass, Large): 100%
pest or weed control at 125 g/ha ([1]; post-emergence, postemergence, visual rating, scale 0 (no effect) to 100 (complete control), read-out: Crabgrass, Large plant response rating): 100%
pest or weed control at 500 g/ha ([1]; pre-emergence, Preemergence, scale 0 to 100, read-out: Crabgrass, Large plant response rating): 0%
pest or weed control at 125 g/ha ([1]; pre-emergence, preemergence, 0 to 100 scale, 0 is no effect, 100 is complete control, read-out: Plant response rating, Crabgrass, Large): 0%
pest or weed control at 1000 g/ha [2]: 80%
pest or weed control at 500 g/ha ([3]; post-emergence, Postemergence, 500 g ai/ha, visual rating after 13 to 15 days, scale 0 (no effect) to 100 (complete control), read-out: Plant response rating, Morningglory): 100%
pest or weed control at 125 g/ha ([3]; post-emergence, postemergence, visual rating, scale 0 (no effect) to 100 (complete control), read-out: Morningglory plant response rating): 100%
pest or weed control at 125 g/ha ([3]; pre-emergence, preemergence, 0 to 100 scale, 0 is no effect, 100 is complete control, read-out: Plant response rating, Morningglory): 0%
Plant response rating, Wheat [4, 16]: 30
plant injury at 125 g/ha ([4]; Triticum aestivum, post-emergence, 336 h, postemergence, 125 g ai/ha, visual rating, read-out: Wheat plant response rating): 20%
pest or weed control at 125 g/ha ([5]; Alopecurus myosuroides, post-emergence, 336 h, postemergence, 125 g ai/ha, visual rating, read-out: Blackgrass plant response rating): 20%
Plant response rating, Blackgrass [5, 16]: 40
pest or weed control at 500 g/ha ([6]; post-emergence, Postemergence, visual rating after 13 to 15 days, scale 0 (no effect) to 100 (complete control), read-out: Plant response rating, Cocklebur): 100%
pest or weed control at 125 g/ha ([6]; post-emergence, postemergence, visual rating, scale 0 (no effect) to 100 (complete control), read-out: Cocklebur plant response rating): 70%
pest or weed control at 500 g/ha ([6]; pre-emergence, Preemergence, scale 0 to 100, read-out: Cocklebur plant response rating): 0%
pest or weed control at 125 g/ha ([6]; pre-emergence, preemergence, 0 to 100 scale, 0 is no effect, 100 is complete control, read-out: Plant response rating, Cocklebur): 0%
pest or weed control at 125 g/ha ([7]; Avena fatua, post-emergence, 336 h, postemergence, 125 g ai/ha, visual rating, read-out: Oat, Wild plant response rating): 30%
Plant response rating, Oat, Wild [7, 16]: 50
pest or weed control at 500 g/ha ([8]; post-emergence, Postemergence, 500 g ai/ha, visual rating after 13 to 15 days, scale 0 (no effect) to 100 (complete control), read-out: Plant response rating, Lambsquarters): 80%
pest or weed control at 125 g/ha ([8]; post-emergence, postemergence, visual rating, scale 0 (no effect) to 100 (complete control), read-out: Lambsquarters plant response rating): 70%
pest or weed control at 125 g/ha ([8]; pre-emergence, preemergence, 0 to 100 scale, 0 is no effect, 100 is complete control, read-out: Plant response rating, Lambsquarters): 0%
pest or weed control at 1000 g/ha [9]: 80%
pest or weed control at 500 g/ha ([10]; post-emergence, Postemergence, 500 g ai/ha, visual rating after 13 to 15 days, scale 0 (no effect) to 100 (complete control), read-out: Plant response rating, Velvetleaf): 100%
pest or weed control at 125 g/ha ([10]; post-emergence, postemergence, visual rating, scale 0 (no effect) to 100 (complete control), read-out: Velvetleaf plant response rating): 90%
pest or weed control at 125 g/ha ([10]; pre-emergence, preemergence, 0 to 100 scale, 0 is no effect, 100 is complete control, read-out: Plant response rating, Velvetleaf): 20%
pest or weed control at 500 g/ha ([11]; post-emergence, Postemergence, visual rating after 13 to 15 days, scale 0 (no effect) to 100 (complete control), read-out: Plant response rating, Barnyardgrass): 90%
pest or weed control at 125 g/ha ([11]; post-emergence, postemergence, visual rating, scale 0 (no effect) to 100 (complete control), read-out: Barnyardgrass plant response rating): 80%
pest or weed control at 500 g/ha ([11]; pre-emergence, Preemergence, scale 0 to 100, read-out: Barnyardgrass plant response rating): 20%
pest or weed control at 125 g/ha ([11]; pre-emergence, preemergence, 0 to 100 scale, 0 is no effect, 100 is complete control, read-out: Plant response rating, Barnyardgrass): 0%
pest or weed control at 1000 g/ha [12]: 90%
pest or weed control at 500 g/ha ([13]; post-emergence, Postemergence, 500 g ai/ha, visual rating after 13 to 15 days, scale 0 (no effect) to 100 (complete control), read-out: Plant response rating, Surinam Grass): 90%
pest or weed control at 125 g/ha ([13]; post-emergence, postemergence, visual rating, scale 0 (no effect) to 100 (complete control), read-out: Surinam Grass plant response rating): 90%
pest or weed control at 125 g/ha ([13]; pre-emergence, preemergence, 0 to 100 scale, 0 is no effect, 100 is complete control, read-out: Plant response rating, Surinam Grass): 0%
plant injury at 1000 g/ha [14]: 60%
Corn plant response rating (crop injury, 0 = no effect, 100 = complete kill) at 500 g/ha ([15]; post-emergence, Postemergence, 500 g ai/ha, visual rating after 13 to 15 days, scale 0 (no effect) to 100 (complete control)): 50%
plant injury at 125 g/ha ([15]; post-emergence, postemergence, 125 g ai/ha, visual rating, scale 0 (no effect) to 100 (complete control), read-out: Corn plant response rating): 20%
plant injury at 500 g/ha ([15]; pre-emergence, Preemergence, 500 g ai/ha, scale 0 to 100, read-out: Corn plant response rating): 10%
Corn plant response rating (crop injury, 0 = no effect, 100 = complete kill) at 125 g/ha ([15]; pre-emergence, preemergence, 125 g ai/ha, 0 to 100 scale, 0 is no effect, 100 is complete control): 0%

— patent US20060069132A1, “Azolecarboxamide herbicides” (priority 2004, published 2006)
